Assay results: patent US6638961B2 (priority 1994, dated 2003)
Where “and” joins values, the source holds several entries; their conditions need not be identical. Identical values can stand only once.

What was measured:
[1] = test system: Phytophthora infestans (tomato blight); assay type: in vivo; conditions: for dose of the active substance alone which it is necessary to apply to obtain the destruction of 90% of the pest: applied alone, tomato plants sprayed 48 hours before contamination, reading 7 days after contamination
[2] = test system: Plasmopara viticola (vine downy mildew); assay: In vivo trial on Plasmopara viticola (vine downy mildew) by preventive treatment at 72 hours, vine cuttings Chardonnay variety
Procedure: (§1) A 60 mg suspension is prepared comprising compounds A and B in a liquid mixture consisting of 0.3 ml of a surface-active agent (oleate of a polyoxyethylenated derivative of sorbitan) diluted 10% in water and of 60 ml of water.
(§2) Vine cuttings (Vitis vinifera) Chardonnay variety, are cultivated in pots. When these plants are 2 months old (8 to 10-leaf stage, height 10 to 15 cm), they are treated by spraying using the above suspension.
(§3) Plants used as controls are treated with a similar suspension but not containing any active substance (formulation blank).
(§4) After drying for 72 hours, each plant is contaminated by spraying an aqueous Plasmopara viticola spore suspension obtained from sporulated leaves contaminated 7 days earlier. These spores are suspended in an amount of 100,000 units per cm^3.
(§5) The contaminated plants are then incubated for two days at about 18° C., in an atmosphere saturated with moisture, and then for 5 days at 20-22° C. under a relative humidity of 90-100%.

[3] = test system: Plasmopara viticola (vine downy mildew); assay: In vivo trial on Plasmopara viticola (vine downy mildew) by preventive treatment at 24 hours, vine cuttings Chardonnay variety; conditions: dose 3.2 mg/l compound A and/or 12.5 mg/l mancozeb; contamination 24 hours after treatment
Procedure: as §1, §2, §3, §4, §5
Example 2 is repeated using as component B mancozeb, using A and B concentrations in the suspension for treating the plants equal to 3.2 and 12.5 mg/l respectively, and finally carrying out the contamination 24 hours after the treatment.
The efficacy measured, as well as the efficacy of products A and B alone measured under the same conditions, is indicated in the table below. […]

Row | Compound | dose of the active substance alone which it is necessary to apply to obtain the destruction of 90% of the pest [1] | efficacy when applied alone ([1]; applied alone under the trial conditions, preventive 48 hours, 90% destruction level (FIG. 1)) | efficacy when applied alone ([2]; applied alone under the trial conditions, preventive 72 hours, 90% destruction level (FIG. 2)) | Efficacy (in %) [3] | dose of the active substance alone which it is necessary to apply to obtain the destruction of 90% of the pest ([2]; applied alone, vine plants sprayed 72 hours before contamination, reading 7 days after contamination)
1 | CCN(C)C(=O)c1ccc(C(F)(F)F)cc1-c1ccc(OC)c(OC)c1 [N-methyl-N-ethyl-2-(3,4-dimethoxyphenyl)-4-trifluoromethylbenzamide] | 166 mg/L | – | – | – | –
2 | CCO[PH](=O)O [fosetyl-Al] | – | not effective | not effective | – | –
3 | mancozeb | – | – | – | 0% | –
4 | CSC1=N[C@@](C)(c2ccccc2)C(=O)N1Nc1ccccc1 [Compound A, (4S)-4-methyl-2-methylthio-4-phenyl-1-phenylamino-2-imidazolin-5-one] | 309 mg/L and 163 mg/L | – | – | 80.8% | 20 mg/L
